We go through eleven molecules from paper PMC8480782, “Efficient Dimerization Disruption of Leishmania infantum Trypanothione Reductase by Triazole-phenyl-thiazoles” (Journal of Medicinal Chemistry, 2021).

In general, IC50 refers to the concentration needed to halve the response being measured. The term EC50 denotes the concentration giving half of the maximal effect.

Like-named read-outs stand apart in the source and are kept apart here. Non-standard residues stand in square brackets, D forms with d. Residues, ends and D or L forms follow the SMILES beside them. Nle = CCCC[C@H](N)C(=O)O

The subject of assay [1] is L. infantum promastigotes. Nature of the assay: Leishmanicidal activity on promastigotes (PI exclusion, flow cytometry). In kind it is cell-based, Leishmania infantum. The settings on record: for EC50: Leishmania infantum. The protocol: (§1) L. infantum promastigotes (MCAN/ES/89/IPZ229/1/89) were grown in Roswell Park Memorial Institute (RPMI)-1640 medium (Sigma-Aldrich, St. Louis, MO) supplemented with 10% heat-inactivated fetal calf serum (FCS), antibiotics, and 25 mM HEPES (pH 7.2) at 26 °C. L. infantum axenic amastigotes (MCAN/ES/89/IPZ229/1/89) were grown in M199 medium (Invitrogen, Leiden, The Netherlands) supplemented with 10% heat-inactivated FCS, 1 g/L β-alanine, 100 mg/L L-asparagine, 200 mg/L sucrose, 50 mg/L sodium pyruvate, 320 mg/L malic acid, 40 mg/L fumaric acid, 70 mg/L succinic acid, 200 mg/L α-ketoglutaric acid, 300 mg/L citric acid, 1.1 g/L sodium bicarbonate, 5 g/L morpholineethanesulfonic acid (MES), 0.4 mg/L hemin, and 10 mg/L gentamicine, pH 5.4, at 37 °C.
(§2) Drug treatment of L. infantum promastigotes was performed during the logarithmic growth phase at a concentration of 2 × 10^6 parasites/mL at 26 °C for 24 h. […] EC50 was evaluated by flow cytometry by the propidium iodide (PI) exclusion method. After selection of the parasite population based on their forward scatter (FSC) and side scatter (SSC) values, live and dead parasite cells were identified by their permeability to PI. All of the assays were conducted in triplicate in at least three independent experiments. Data were analyzed using a nonlinear regression model with GraFit 6 software (Erithacus, Horley, Surrey, U.K.).
Background: In flow cytometry, cells or beads pass a laser one at a time.

The test system of assay [2] is L. infantum axenic amastigotes. Description: Leishmanicidal activity on axenic amastigotes (PI exclusion, flow cytometry). The assay is classed as cell-based, Leishmania infantum. The settings on record: for SIa (ratio of EC50 against human cells to EC50 against amastigotes): HepG2 / axenic amastigotes; for EC50: Leishmania infantum, axenic amastigotes, 24 h at 37 °C, read-out: EC50 amastigotes. On the procedure: as §1
Axenization was performed by diluting 0.5 mL of a 7-day stationary phase culture of L. infantum promastigotes (2–3 × 10^7 parasites/mL) in 4.5 mL of amastigotes medium and incubating the culture at 37 °C for 2 or 3 days. L. infantum axenic amastigotes apparition was followed by phase-contrast microscopy using an Eclipse Ti inverted microscope (Nikon, Tokyo, Japan).
as §2

A further assay deals with T1, LiTryR (Leishmania infantum, UniProt A4HSF7).
T1 construct: HIS (N); made in house; host or cells: E. coli BL21 (DE3) Rossetta
Nature of the assay: biochemical. In kind it is biochemical. The settings on record: LiTryR; 1 μM TS2; maximum assayed 75 μM; read-out: IC50^act, TryR oxidoreductase activity. On the procedure:
A concentration of 1 μM TS2 was used for this initial screening. This low substrate concentration is sufficient for comparison of compound inhibitory activity in the oxidoreductase assay.
Recombinant L. infantum TryR (LiTryR) HIS-tagged and HIS-FLAG-tagged versions were used for all LiTryR oxidoreductase activity and dimer quantitation assays. These LiTryR versions were purified from Escherichia coli as previously described.[25] Briefly, pRSETA-HIS-LiTryR construct alone or in combination with the pET24a-FLAG-LiTryR construct was transformed into BL21 (DE3) Rossetta E. coli strain. An overnight E. coli culture grown at 37 °C in Luria–Bertani (LB) medium with the appropriate antibiotics and vigorous shaking was diluted (1:100) in the same medium and allowed to grow in the same conditions until the OD600 was 0.5. Then, LiTryR expression was induced by addition of 1 mM isopropyl-β-D-1-thiogalactopyranoside (IPTG) for 16 h at 26 °C. The cells were centrifuged for 5 min at 9000g and 4 °C and the wet pellet resuspended in lysis buffer (50 mM Tris, pH 7, 300 mM NaCl, 25 mM imidazole, protease inhibitor cocktail, and 1 mg/mL lysozyme). […] The supernatant was sonicated again as previously described for 10 min and loaded on a HisTrap column (GE Healthcare, Chicago, IL) for 16 h at 4 °C using a P-1 peristaltic pump (GE Healthcare, Chicago, IL). Once loaded, the HisTrap column was connected to an ÄKTA purifier UPC 10 (GE Healthcare, Chicago, IL) and washed using a 5–10% gradient between buffer A (50 mM Tris, pH 7 and 300 mM NaCl) and B (50 mM Tris, pH 7, 300 mM NaCl, and 500 mM imidazole). LiTryR was eluted using a 40% gradient between buffers A and B. Fractions containing recombinant LiTryR were pooled and loaded into a HiPrep 26/10 Desalting column (GE Healthcare, Chicago, IL) previously equilibrated with buffer A. Finally, LiTryR was concentrated to 2 mg/mL using an Amicon Ultra-15 50K (Merck Millipore, Burlington, MA) and an equal volume of glycerol was added before storing at −20 °C.
TryR oxidoreductase activity was determined spectrophotometrically using a modified version of the DTNB-coupled assay described by Hamilton et al.[52] Briefly, reactions were carried out at 26 °C in 250 μL of N-(2-hydroxyethyl)piperazine-N′-ethanesulfonic acid (HEPES) buffer (pH 7.5, 40 mM) containing ethylenediaminetetraacetic acid (EDTA) (1 mM), NADP^+ (30 μM), DTNB (25 μM), TS2 (1 μM), NADPH (150 μM), glycerol (0.02%), DMSO (1.75%), and recombinant TryR (7 nM). […] Reactions were started by addition of a mixture of NADPH and TS2.
TryR oxidoreductase activity was monitored at 26 °C by an increase in absorbance at 412 nm in an EnSpire Multimode Plate Reader (PerkinElmer, Waltham, MA). […] (TNB) concentration was obtained by multiplying the absorbance values by 100 (50 μM TNB generates 0.5 arbitrary units of absorbance at 412 nm). In this DTNB-coupled assay, one molecule of T(SH)2 reduces one molecule of DTNB, producing two TNB molecules. All of the assays were conducted in at least three independent experiments. Data were analyzed using a nonlinear regression model with GraFit 6 software (Erithacus, Horley, Surrey, U.K.).

A further assay deals with T2, LiTryR dimer (Leishmania infantum, UniProt A4HSF7).
T2 construct: made in house; host or cells: E. coli BL21 (DE3) Rossetta (co-transformed with both plasmids)
Description: biochemical. The settings on record: 400 nM LiTryR, 16 h at 37 °C; read-out: IC50^dim, LiTryR monomer displacement (dimer quantitation ELISA). On the procedure:
The stability of the LiTryR dimeric form in the presence of 1,2,3-triazole-phenyl-thiazole-based compounds was evaluated using the novel enzyme-linked immunosorbent assay (ELISA) developed in our laboratory.[25] […] Next, the different solutions were centrifuged at 18 000g for 15 min at room temperature. The supernatants (200 μL/well) were added to the α-FLAG-coated plates (Sigma-Aldrich, St. Louis, MO) and incubated for 30 min at 37 °C with agitation in a humid atmosphere. The plates were washed five times with TTBS buffer (2 mM Tris, pH 7.6, 138 mM NaCl, and 0.1% Tween-20) and incubated with diluted monoclonal α-HIS horseradish peroxidase (HRP)-conjugated antibody (200 μL, 1:50 000, Abcam, Cambridge, U.K.) in fatty acid- and essentially globulin-free bovine serum albumin (BSA) (5%) prepared in TTBS buffer for 1 h at room temperature. The plates were washed five times, and o-phenylenediamine dihydrochloride (OPD) substrate prepared according to the manufacturer’s instructions was added. The enzymatic reaction was stopped after 5 min with H2SO4 (100 μL, […]), and the absorbances were measured at 490 nm in an EnSpire Multimode Plate Reader (PerkinElmer, Waltham, MA). All of the assays were conducted in triplicate in at least three independent experiments. Data were analyzed using a nonlinear regression model with GraFit 6 software (Erithacus, Horley, Surrey, U.K.).
A general note: An ELISA detects its analyte on a solid surface through an enzyme-linked reagent.

For another assay, the system named is HepG2 cells. Description: Cellular toxicity, crystal violet assay. The settings on record: Homo sapiens, HepG2; 24 h, crystal violet method; read-out: EC50 HepG2. The assay is classed as cell-based. On the procedure: Liver hepatocellular carcinoma HepG2 cells were grown in Dulbecco’s modified Eagle’s medium (DMEM) (Sigma-Aldrich, St. Louis, MO) with 10% heat-inactivated FCS, antibiotics, and 10 mM HEPES.
Drug treatment of liver hepatocellular carcinoma HepG2 cells was performed at a concentration of 10^5 cells/mL at 37 °C and 5% CO2 for 24 h. EC50 was evaluated by the crystal violet assay. Briefly, cells were washed with phosphate-buffered saline (PBS) and stained with 200 μL of crystal violet solution (0.2% crystal violet, 2% ethanol) for 10 min at room temperature. Next, the plates were washed twice with tap water and allowed to dry. The stained cells were solubilized with 400 μL of 1% sodium dodecyl sulfate (SDS), and the color intensity was quantified at 570 nm using an EnSpire Multimode Plate Reader (PerkinElmer, Waltham, MA). All of the assays were conducted in triplicate in at least three independent experiments. Data were analyzed using a nonlinear regression model with GraFit 6 software (Erithacus, Horley, Surrey, U.K.).

Where [3] appears, read: promastigotes or amastigotes (either form), read-out: EC50 against Leishmania promastigotes or amastigotes.

T1 sequence (A4HSF7 1-491): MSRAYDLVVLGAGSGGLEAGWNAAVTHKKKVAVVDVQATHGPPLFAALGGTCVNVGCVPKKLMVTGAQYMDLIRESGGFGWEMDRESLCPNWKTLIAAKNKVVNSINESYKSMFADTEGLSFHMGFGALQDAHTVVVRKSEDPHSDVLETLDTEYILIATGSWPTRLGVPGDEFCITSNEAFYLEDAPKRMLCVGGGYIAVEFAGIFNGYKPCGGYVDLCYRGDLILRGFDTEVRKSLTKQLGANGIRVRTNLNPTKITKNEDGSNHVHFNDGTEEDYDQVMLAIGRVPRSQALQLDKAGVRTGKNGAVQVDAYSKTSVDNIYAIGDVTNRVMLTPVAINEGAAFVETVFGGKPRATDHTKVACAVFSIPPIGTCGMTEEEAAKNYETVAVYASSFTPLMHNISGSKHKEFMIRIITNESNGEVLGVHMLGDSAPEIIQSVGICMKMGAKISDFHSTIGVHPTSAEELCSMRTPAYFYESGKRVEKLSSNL
T2 sequence (A4HSF7 1-491): as above

As to `CCCC[C@H](NC(=O)[C@H](CCCCN)NC(=O)[C@H](CCCC)NC(=O)[C@H](CO)NC(=O)[C@@H](NC(=O)CNC(=O)[C@@H](NC(=O)[C@H](CO)NC(=O)[C@H](CCC(N)=O)NC(=O)[C@@H](NC(=O)[C@@H](NC(=O)[C@H](CCCCN)NC(=O)[C@@H]1CCCN1C(=O)[C@H](CCCNC(=N)N)NC(=O)[C@H](CCCNC(=N)N)NC(=O)[C@H](CCCNC(=N)N)NC(=O)[C@H](CCCNC(=N)N)NC(=O)[C@H](CCCNC(=N)N)NC(=O)[C@H](CCCNC(=N)N)NC(=O)[C@H](CCCNC(=N)N)NC(=O)[C@H](CCCNC(=N)N)NC(=O)[C@H](CCCNC(=N)N)NC(C)=O)[C@@H](C)CC)[C@@H](C)CC)C(C)C)[C@@H](C)CC)C(N)=O` [R9-peptide 1, reference compound] (Ac-RRRRRRRRRPKIIQSVGIS[Nle]K[Nle]-NH2; N-terminus and C-terminus assumed), the “SIp (ratio of EC50 against human cells to EC50 against promastigotes)” value in assay [1] (HepG2 / promastigotes) is given as 19.9. Also, the “SIa (ratio of EC50 against human cells to EC50 against amastigotes)” value in assay [2] stood at 18.1.
For the molecule `NCCCCc1cn(-c2ccc(-c3nc(CCc4ccc(-c5ccccc5)cc4)c(-c4ccccc4)s3)c(OCCN3CCNC3=O)c2)nn1.O=C(O)C(F)(F)F` [19d, 1-(2-(2-(4-(2-([1,1′-Biphenyl]-4-yl)ethyl)-5-phenyl-thiazol-2-yl)-5-(4-(4-ammoniobutyl)-1H-1,2,3-triazol-1-yl)phenoxy)ethyl)imidazolidin-2-one 2,2,2-Trifluoroacetate], the values for the IC50 on LiTryR and on LiTryR dimer were 19.8 ± 2.3 µM and 5.7 ± 0.5 µM, respectively. The EC50 in assay [1] (setting [3]) was less than 10 µM; in assay [2], 9.1 ± 0.2 µM; with HepG2 cells it was 12.1 ± 0.1 µM. In addition, the “SIa (ratio of EC50 against human cells to EC50 against amastigotes)” value in assay [2] is “ND/1.3”.
For `NCCCCc1cn(-c2ccc(-c3nc(CCc4ccc(Oc5ccccc5)cc4)c(-c4ccccc4)s3)c(OCCN3CCNC3=O)c2)nn1.O=C(O)C(F)(F)F` [19e, 1-(2-(2-(4-(2-([4-Phenyloxyphenyl]-1-yl)ethyl)-5-phenyl-thiazol-2-yl)-5-(4-(4-ammoniobutyl)-1H-1,2,3-triazol-1-yl)phenoxy)ethyl)imidazolidin-2-one 2,2,2-Trifluoroacetate], the IC50 at LiTryR was determined as 19.3 ± 3.7 µM; on LiTryR dimer, 6.7 ± 1 µM. Moreover, the values for the EC50 (in assay [1] (setting [3]); in assay [2]; in the assay with HepG2 cells) were less than 10 µM, 8.4 ± 0.1 µM and 6.6 ± 0.6 µM, respectively. Besides, the “SIa (ratio of EC50 against human cells to EC50 against amastigotes)” value in assay [2] is listed as “ND/<1”.
`O=C1NCCN1CCOc1cc(Br)ccc1-c1nc(CCc2ccccc2)cs1` [compound 13]: the IC50 on LiTryR and at LiTryR dimer was greater than 75 µM each time.
For the molecule `COc1cc(-n2cc(CCCCN)nn2)ccc1-c1nc(CCc2ccc(-c3ccccc3)cc2)cs1.O=C(O)C(F)(F)F` [12k], the IC50 on LiTryR came to 26.8 ± 5.7 µM; at LiTryR dimer it was 16.1 ± 0.7 µM. Moreover, the “SIa (ratio of EC50 against human cells to EC50 against amastigotes)” value in assay [2] is reported as “ND/1.9”. Besides, the EC50 amounted to 4 ± 0.2 µM in assay [2] and 7.4 ± 0.6 µM in the assay on HepG2 cells.
`CCCCc1cn(-c2ccc(-c3nc(CCc4ccccc4)cs3)c(OCCN3CCNC3=O)c2)nn1` [12e]: the IC50 at LiTryR and at LiTryR dimer was greater than 75 µM throughout.
Turning to `CCCCc1cn(-c2ccc(-c3nc(CCc4ccc(-c5ccccc5)cc4)cs3)c(OCCN3CCNC3=O)c2)nn1` [12f], the IC50 at LiTryR and at LiTryR dimer was greater than 75 µM in each case.
In the case of `O=C1NCCN1CCOc1cc(-n2cc(CCCCO)nn2)ccc1-c1nc(CCc2ccccc2)cs1` [12d], the IC50 at LiTryR and on LiTryR dimer was greater than 75 µM each time.
Turning to `NCCCCc1cn(-c2ccc(-c3nc(Cc4ccccc4)cs3)c(OCCN3CCNC3=O)c2)nn1` [12o], the EC50 was greater than 75 µM in assay [1] (24 h at 26 °C, read-out: EC50 promastigotes); greater than 75 µM in assay [2]; 67.9 ± 1.5 µM with HepG2 cells.
On to `CC(C)Oc1csc(-c2ccc(-n3cc(CCCCN)nn3)cc2OCCN2CCNC2=O)n1` [12l], for which the IC50 at LiTryR was 54.5 ± 4.4 µM; at LiTryR dimer, greater than 75 µM.
Taken in the same sequence, the figures for `N#Cc1ccc(-n2cc(CCCCN)nn2)cc1OCCN1CCNC1=O` [compound 14] were greater than 75 µM and greater than 75 µM.
